Test results reported in ChEMBL document CHEMBL5365420, “Kinetics, Thermodynamics, and Structural Effects of Quinoline-2-Carboxylates, Zinc-Binding Inhibitors of New Delhi Metallo-β-lactamase-1 Re-sensitizing Multidrug-Resistant Bacteria for Carbapenems” (J Med Chem, 2023).
Blank lines part the entries; values can stand above or below the molecule they belong to.

Assays:
[1] = biological target: T1, 72 kDa type IV collagenase (Homo sapiens, UniProt P08253); experiment: Inhibition of human recombinant MMP-2 CD using OMNIMMP as substrate incubated for 30 mins by fluorescence based analysis
Target sequence in this assay (P08253 whole entry): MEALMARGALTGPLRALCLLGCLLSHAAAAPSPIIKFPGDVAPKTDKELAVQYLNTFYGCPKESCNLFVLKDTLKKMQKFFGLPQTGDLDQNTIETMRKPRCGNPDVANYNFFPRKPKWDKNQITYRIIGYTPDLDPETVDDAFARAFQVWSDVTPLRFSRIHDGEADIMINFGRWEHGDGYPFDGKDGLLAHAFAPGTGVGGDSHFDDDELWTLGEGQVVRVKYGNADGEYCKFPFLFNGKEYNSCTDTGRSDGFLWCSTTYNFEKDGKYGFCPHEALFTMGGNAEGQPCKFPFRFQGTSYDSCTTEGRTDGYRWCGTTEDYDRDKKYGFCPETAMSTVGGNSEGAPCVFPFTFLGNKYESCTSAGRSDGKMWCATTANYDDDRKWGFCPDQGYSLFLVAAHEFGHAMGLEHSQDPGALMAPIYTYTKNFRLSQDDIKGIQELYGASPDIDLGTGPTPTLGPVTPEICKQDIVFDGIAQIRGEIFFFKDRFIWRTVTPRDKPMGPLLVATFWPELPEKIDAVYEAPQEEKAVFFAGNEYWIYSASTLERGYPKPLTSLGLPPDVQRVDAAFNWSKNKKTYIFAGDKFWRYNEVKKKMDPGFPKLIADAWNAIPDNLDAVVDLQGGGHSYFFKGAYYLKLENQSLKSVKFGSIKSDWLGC

Acinetobacter baumannii [2] = experiment: Antibacterial activity against clinical isolate Acinetobacter baumannii IC 19/09 expressing blaNDM-1 co-expressing blaOXA-64 assessed as meropenem MIC at 59.20 uM measured after 20 hrs by broth microdilution assay (reference value: 24 mg/L); type: functional; conditions: dose 59.2 µM
[3] = biological target: T1, 72 kDa type IV collagenase; experiment: Inhibition of human recombinant MMP-2 CD at 10 uM using OMNIMMP as substrate incubated for 30 mins by fluorescence based analysis relative to control
Target sequence in this assay (P08253 110-660 limits assumed): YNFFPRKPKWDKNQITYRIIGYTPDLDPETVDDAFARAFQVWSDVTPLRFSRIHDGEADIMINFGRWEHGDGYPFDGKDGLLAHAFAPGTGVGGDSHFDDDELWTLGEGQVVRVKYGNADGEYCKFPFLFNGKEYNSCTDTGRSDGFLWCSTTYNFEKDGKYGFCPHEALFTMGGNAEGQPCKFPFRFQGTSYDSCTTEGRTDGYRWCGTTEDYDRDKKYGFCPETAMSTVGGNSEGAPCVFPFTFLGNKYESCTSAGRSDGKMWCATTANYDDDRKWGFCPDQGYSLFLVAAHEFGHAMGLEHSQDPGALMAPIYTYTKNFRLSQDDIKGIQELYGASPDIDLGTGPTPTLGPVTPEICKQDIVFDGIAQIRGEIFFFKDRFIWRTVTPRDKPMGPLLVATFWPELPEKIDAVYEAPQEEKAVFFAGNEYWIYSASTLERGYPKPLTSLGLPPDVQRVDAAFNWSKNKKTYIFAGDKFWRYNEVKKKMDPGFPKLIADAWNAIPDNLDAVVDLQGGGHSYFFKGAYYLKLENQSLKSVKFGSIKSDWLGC

Klebsiella pneumoniae [4] = experiment: Antibacterial activity against clinical isolate Klebsiella pneumoniae ST1493/10 expressing blaNDM-1 co-expressing blaCMY-2like/blaTEM-1/blaCTX-M-15/blaSHV-28/blaOXA-1 and blaOXA-9 assessed as meropenem MIC at 29.60 uM measured after 20 hrs by broth microdilution assay (reference value: 12 mg/L); type: functional; conditions: dose 29.6 µM
Escherichia coli [5] = experiment: Antibacterial activity against clinical isolate Escherichia coli 371/12 expressing blaNDM-7 co-expressing blaCTX-M-15 and blaOXA-1 assessed as meropenem MIC at 59.20 uM measured after 20 hrs by broth microdilution assay (reference value: 24 mg/L); type: functional; conditions: dose 59.2 µM
[6] = Inhibition of VIM-2 (unknown origin) incubated for 15 mins by absorbance based microplate reader analysis; parameters: species or system Bacteria
Escherichia coli [7] = experiment: Antibacterial activity against clinical isolate Escherichia coli K12 J53-ST10 696/17 expressing blaNDM-1 co-expressing blaCMY-4 assessed as meropenem MIC at 59.20 uM measured after 20 hrs by broth microdilution assay (reference value: 24 mg/L); type: functional; conditions: dose 59.2 µM
Escherichia coli [8] = experiment: Antibacterial activity against clinical isolate Escherichia coli K12 J53-ST10 696/17 expressing blaNDM-1 co-expressing blaCMY-4 assessed as meropenem MIC at 29.60 uM measured after 20 hrs by broth microdilution assay (reference value: 12 mg/L); type: functional; conditions: dose 29.6 µM
Klebsiella pneumoniae [9] = experiment: Antibacterial activity against clinical isolate Klebsiella pneumoniae 50/20 expressing blaNDM-5 co-expressing blaTEM-1 and blaSHV-1 assessed as meropenem MIC at 59.20 uM measured after 20 hrs by broth microdilution assay (reference value: 24 mg/L); type: functional; conditions: dose 59.2 µM
Escherichia coli [10] = experiment: Antibacterial activity against clinical isolate Escherichia coli ST1012/10 expressing blaNDM-1 co-expressing blaTEM-1/blaCTX-M-15/blaOXA-1 and blaOXA-2 assessed as meropenem MIC at 59.20 uM measured after 20 hrs by broth microdilution assay (reference value: 24 mg/L); type: functional; conditions: dose 59.2 µM
Klebsiella pneumoniae [11] = experiment: Antibacterial activity against clinical isolate Klebsiella pneumoniae 62/07 expressing blaVIM-19 co-expressing blaSHV-1/blaCTX-M-14 and blaCMY-4 assessed as meropenem MIC at 29.60 uM measured after 20 hrs by broth microdilution assay (reference value: 12 mg/L); type: functional; conditions: dose 29.6 µM
Escherichia coli [12] = experiment: Antibacterial activity against clinical isolate Escherichia coli 371/12 expressing blaNDM-7 co-expressing blaCTX-M-15 and blaOXA-1 assessed as meropenem MIC at 29.60 uM measured after 20 hrs by broth microdilution assay (reference value: 12 mg/L); type: functional; conditions: dose 29.6 µM
[13] = Inhibition of GIM1 (unknown origin) incubated for 15 mins by absorbance based microplate reader analysis; parameters: species or system Bacteria
Escherichia coli [14] = experiment: Antibacterial activity against clinical isolate Escherichia coli K12 J53-ST10 618/15 expressing blaNDM-1 assessed as meropenem MIC at 59.20 uM measured after 20 hrs by broth microdilution assay (reference value: 24 mg/L); type: functional; conditions: dose 59.2 µM
Escherichia coli [15] = experiment: Antibacterial activity against clinical isolate Escherichia coli K12 J53-ST10 684/18 expressing blaNDM-1 co-expressing blaCMY-2 and blaOXA-10 assessed as meropenem MIC at 29.60 uM measured after 20 hrs by broth microdilution assay (reference value: 12 mg/L); type: functional; conditions: dose 29.6 µM
Escherichia coli [16] = experiment: Antibacterial activity against clinical isolate Escherichia coli K12 J53-ST10 699/15 expressing blaNDM-1 assessed as meropenem MIC at 29.60 uM measured after 20 hrs by broth microdilution assay (reference value: 12 mg/L); type: functional; conditions: dose 29.6 µM
Klebsiella pneumoniae [17] = experiment: Antibacterial activity against clinical isolate Klebsiella pneumoniae 50/20 expressing blaNDM-5 co-expressing blaTEM-1 and blaSHV-1 assessed as meropenem MIC at 29.60 uM measured after 20 hrs by broth microdilution assay (reference value: 12 mg/L); type: functional; conditions: dose 29.6 µM
[18] = biological target: T1, 72 kDa type IV collagenase; experiment: Binding affinity to human recombinant MMP-2 CD assessed as inhibition constant using OMNIMMP as substrate incubated for 30 mins by fluorescence based analysis
Target sequence in this assay (P08253 whole entry): as the sequence (P08253 whole entry) above

Escherichia coli [19] = experiment: Antibacterial activity against clinical isolate Escherichia coli ST1012/10 expressing blaNDM-1 co-expressing blaTEM-1/blaCTX-M-15/blaOXA-1 and blaOXA-2 assessed as meropenem MIC at 29.60 uM measured after 20 hrs by broth microdilution assay (reference value: 12 mg/L); type: functional; conditions: dose 29.6 µM
Klebsiella pneumoniae [20] = experiment: Antibacterial activity against clinical isolate Klebsiella pneumoniae 50/11 expressing blaNDM-1 co-expressing blaTEM-1/blaSHV-28/blaTEM-1/blaCTX-M-15 and blaOXA-1 assessed as meropenem MIC at 29.60 uM measured after 20 hrs by broth microdilution assay (reference value: 12 mg/L); type: functional; conditions: dose 29.6 µM
Escherichia coli [21] = experiment: Antibacterial activity against clinical isolate Escherichia coli K12 J53-ST10 618/15 expressing blaNDM-1 assessed as meropenem MIC at 29.60 uM measured after 20 hrs by broth microdilution assay (reference value: 12 mg/L); type: functional; conditions: dose 29.6 µM
Klebsiella pneumoniae [22] = experiment: Antibacterial activity against clinical isolate Klebsiella pneumoniae 62/07 expressing blaVIM-19 co-expressing blaSHV-1/blaCTX-M-14 and blaCMY-4 assessed as meropenem MIC at 59.20 uM measured after 20 hrs by broth microdilution assay (reference value: 24 mg/L); type: functional; conditions: dose 59.2 µM
Escherichia coli [23] = experiment: Antibacterial activity against clinical isolate Escherichia coli K12 J53-ST10 684/18 expressing blaNDM-1 co-expressing blaCMY-2 and blaOXA-10 assessed as meropenem MIC at 59.20 uM measured after 20 hrs by broth microdilution assay (reference value: 24 mg/L); type: functional; conditions: dose 59.2 µM
Klebsiella pneumoniae [24] = experiment: Antibacterial activity against clinical isolate Klebsiella pneumoniae ST1493/10 expressing blaNDM-1 co-expressing blaCMY-2like/blaTEM-1/blaCTX-M-15/blaSHV-28/blaOXA-1 and blaOXA-9 assessed as meropenem MIC at 59.20 uM measured after 20 hrs by broth microdilution assay (reference value: 24 mg/L); type: functional; conditions: dose 59.2 µM
Klebsiella pneumoniae [25] = experiment: Antibacterial activity against clinical isolate Klebsiella pneumoniae ST23213/19 expressing blaNDM-1 co-expressing blaOXA-48/blaSHV-11/blaCTX-M-15 and blaOXA-1 assessed as meropenem MIC at 59.20 uM measured after 20 hrs by broth microdilution assay (reference value: 24 mg/L); type: functional; conditions: dose 59.2 µM
[26] = biological target: Histone deacetylase 1 (Homo sapiens) (UniProt Q13547); experiment: Inhibition of C-terminal 6His/FLAG-tagged human recombinant full-length HDAC1 (1 to 482(end) residues) at 10 uM using Boc-Lys-(Ac)-AMC as substrate incubated for 10 mins followed by substrate addition measured after 1 hr by fluorescence based analysis relative to control; conditions: time 70.0 min
[27] = Inhibition of IMP-1 (unknown origin) expressed in Escherichia coli BL21-DE3 incubated for 15 mins by absorbance based microplate reader analysis; parameters: species or system Bacteria
[28] = biological target: Carbonic anhydrase 2 (Homo sapiens) (UniProt P00918); experiment: Inhibition of human CA2 at 10 uM using pNPA as substrate preincubated for 15 mins followed by substrate by absorbance based analysis relative to control
Klebsiella pneumoniae [29] = experiment: Antibacterial activity against clinical isolate Klebsiella pneumoniae ST23213/19 expressing blaNDM-1 co-expressing blaOXA-48/blaSHV-11/blaCTX-M-15 and blaOXA-1 assessed as meropenem MIC at 29.60 uM measured after 20 hrs by broth microdilution assay (reference value: 12 mg/L); type: functional; conditions: dose 29.6 µM
Klebsiella pneumoniae [30] = experiment: Antibacterial activity against clinical isolate Klebsiella pneumoniae 50/11 expressing blaNDM-1 co-expressing blaTEM-1/blaSHV-28/blaTEM-1/blaCTX-M-15 and blaOXA-1 assessed as meropenem MIC at 59.20 uM measured after 20 hrs by broth microdilution assay (reference value: 24 mg/L); type: functional; conditions: dose 59.2 µM
Escherichia coli [31] = experiment: Antibacterial activity against clinical isolate Escherichia coli K12 J53-ST10 699/15 expressing blaNDM-1 assessed as meropenem MIC at 59.20 uM measured after 20 hrs by broth microdilution assay (reference value: 24 mg/L); type: functional; conditions: dose 59.2 µM
Acinetobacter baumannii [32] = experiment: Antibacterial activity against clinical isolate Acinetobacter baumannii IC 19/09 expressing blaNDM-1 co-expressing blaOXA-64 assessed as meropenem MIC at 29.60 uM measured after 20 hrs by broth microdilution assay (reference value: 12 mg/L); type: functional; conditions: dose 29.6 µM

Chain of Histone deacetylase 1 (Homo sapiens) (Q13547 whole entry): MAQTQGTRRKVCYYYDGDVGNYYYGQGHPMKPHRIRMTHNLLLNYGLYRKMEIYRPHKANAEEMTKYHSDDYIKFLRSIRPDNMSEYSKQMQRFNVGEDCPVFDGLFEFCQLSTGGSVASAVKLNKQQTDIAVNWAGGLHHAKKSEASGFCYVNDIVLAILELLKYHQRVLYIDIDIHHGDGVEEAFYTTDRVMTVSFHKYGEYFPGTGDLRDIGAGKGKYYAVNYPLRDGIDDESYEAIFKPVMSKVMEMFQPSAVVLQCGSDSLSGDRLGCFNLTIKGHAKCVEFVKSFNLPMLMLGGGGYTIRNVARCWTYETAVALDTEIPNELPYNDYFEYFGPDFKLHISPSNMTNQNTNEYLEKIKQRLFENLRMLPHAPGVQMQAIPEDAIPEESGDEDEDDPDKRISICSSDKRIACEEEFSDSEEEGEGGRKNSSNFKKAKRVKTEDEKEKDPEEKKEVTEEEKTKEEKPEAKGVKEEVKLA

IC50 [1]: 266 nM
SMILES: O=C(O)[C@H](Cc1ccccc1)NS(=O)(=O)c1ccc(-c2ccccc2)cc1

MIC (Acinetobacter baumannii [2]): 1 µg/mL
inhibition [3]: > 90%
MIC (Klebsiella pneumoniae [4]): 4 µg/mL
MIC (Escherichia coli [5]): ≤ 0.125 µg/mL
IC50 [6]: 400 nM
MIC (Escherichia coli [7]): ≤ 0.125 µg/mL
MIC (Escherichia coli [8]): 0.25 µg/mL
MIC (Klebsiella pneumoniae [9]): ≤ 0.125 µg/mL
MIC (Escherichia coli [10]): ≤ 0.125 µg/mL
MIC (Klebsiella pneumoniae [11]): 8 µg/mL
MIC (Escherichia coli [12]): 32 µg/mL
IC50 [13]: 650 nM
MIC (Escherichia coli [14]): ≤ 0.125 µg/mL
MIC (Escherichia coli [15]): 0.5 µg/mL
MIC (Escherichia coli [16]): 1 µg/mL
MIC (Klebsiella pneumoniae [17]): 2 µg/mL
Ki [18]: 7750 nM
MIC (Escherichia coli [19]): 0.5 µg/mL
MIC (Klebsiella pneumoniae [20]): 0.5 µg/mL
MIC (Escherichia coli [21]): ≤ 0.125 µg/mL
MIC (Klebsiella pneumoniae [22]): 0.25 µg/mL
MIC (Escherichia coli [23]): ≤ 0.125 µg/mL
MIC (Klebsiella pneumoniae [24]): 1 µg/mL
MIC (Klebsiella pneumoniae [25]): 16 µg/mL
inhibition [26]: < 5%
IC50 [27]: 690 nM
inhibition [28]: < 5%
MIC (Klebsiella pneumoniae [29]): 16 µg/mL
MIC (Klebsiella pneumoniae [30]): 0.25 µg/mL
MIC (Escherichia coli [31]): ≤ 0.125 µg/mL
MIC (Acinetobacter baumannii [32]): 16 µg/mL
SMILES: O=C(O)c1ccc2c(-c3ccccc3)ccc(NS(=O)(=O)c3ccccn3)c2n1
